# Where two headings read alike, the source gives them in different places.
# Legend:
# [1] = high humidity, mentioned in CN105085533A, cited from earlier work
# [2] = crystal form stability at high humidity; assay type: physicochemical
# [3] = desiccator, 4 months, room temperature, relative humidity of 10% to 90%
# [4] = stability test in water, stirred at 25° C. for 24 hours, crystal form detection by XRPD; assay type: physicochemical; settings: for Crystal Form: 100 mg in 5 mL deionized water, stirred at 25° C. for 24 hours, XRPD
# [5] = crystal stability test, samples placed at 80° C. for 24 hours, crystal form detection by XRPD; assay type: physicochemical; settings: after being placed for 24 hours at 80° C.
# [6] = water solubility test (apparent water solubility, HPLC detection); settings: 10 mg in 10 mL deionized water, sonicated at 25° C. for 1 minute
# [7] = hygroscopicity, isothermal adsorption curve (weight gain versus relative humidity); assay type: physicochemical
# physchem = settings: deionized water, 25 °C, thermodynamic from solid
# [8] = listed as co-crystal form of ribociclib monosuccinate and citric acid
smiles,measurement,setting,value
CN(C)C(=O)c1cc2cnc(Nc3ccc(N4CCNCC4)cn3)nc2n1C1CCCC1.O=C(O)CCC(=O)O [listing 1 of 2 here],sensitivity of the crystal form to humidity,[1],easily converts to other crystal forms at high humidity
same,sensitivity of the crystal form to humidity,[1]; listed as anhydrate crystal form,easily convert to other crystal forms at high humidity
CN(C)C(=O)c1cc2cnc(Nc3ccc(N4CCNCC4)cn3)nc2n1C1CCCC1.O=C(O)CC(O)(CC(=O)O)C(=O)O.O=C(O)CCC(=O)O,crystal form at high humidity,[2],remains unchanged
same,"appearance, XRPD and melting point after storage",[3],remain unchanged
same,Crystal Form,[4]; [8],remains unchanged
same,Crystal Form,[4]; listed as co-crystal of ribociclib monosuccinateand citric acid,Unchanged
same,Crystal Form,[5],Unchanged
same,Crystal Form,[5]; [8],remains unchanged
CN(C)C(=O)c1cc2cnc(Nc3ccc(N4CCNCC4)cn3)nc2n1C1CCCC1.O=C(O)c1cc(=O)[nH]c(=O)[nH]1,Solubility,[6],110 µg/mL
same,crystal form at high humidity,[2],remains unchanged
same,"appearance, XRPD and melting point after storage",[3],remain unchanged
CN(C)C(=O)c1cc2cnc(Nc3ccc(N4CCNCC4)cn3)nc2n1C1CCCC1 [co-crystal of ribociclib and saccharin],crystal form at high humidity,[2],remains unchanged
same,"appearance, XRPD and melting point after storage",[3],remain unchanged
same,weight gain,[7]; relative humidity of 0-10%,0.04%
same,weight gain,[7]; relative humidity of 10 to 80%,0.45%
same,Crystal Form,[5],Unchanged
same,Crystal Form,[5]; listed as co-crystal form of ribociclib and saccharin,remains unchanged
same,solubility at 1 min,physchem,~100 µg/mL
CN(C)C(=O)c1cc2cnc(Nc3ccc(N4CCNCC4)cn3)nc2n1C1CCCC1.O=C(O)CCC(=O)O [listing 2 of 2 here],Crystal Form,[4],cannot maintain its original crystal form
same,crystal stability in water,"[4]; in water, conditions not given, found by the inventors",crystallinity decreased significantly in water
